For assay [1], the target named is Somatostatin receptor type 4 (Homo sapiens, UniProt P31391). As to the kind of experiment: Inhibition of [Leu8,D-Trp22,125I-Tyr25]SRIF-28 binding to human somatostatin receptor type 4.
Assay [2] deals with Somatostatin receptor type 3 (Homo sapiens, UniProt P32745). The experiment in a line: Inhibition of [Leu8,D-Trp22,125I-Tyr25]SRIF-28 binding to human somatostatin receptor type 3.
Assay [3] has as its target Somatostatin receptor type 1 (Homo sapiens, UniProt P30872). The experiment in a line: Inhibition of [Leu8,D-Trp22,125I-Tyr25]SRIF-28 binding to human somatostatin receptor type 1.
Assay [4] addresses Somatostatin receptor type 2 (Homo sapiens, UniProt P30874). As to the kind of experiment: Inhibition of [Leu8,D-Trp22,125I-Tyr25]SRIF-28 binding to human somatostatin receptor type 2.
Assay [5] concerns the target Somatostatin receptor type 5 (Homo sapiens, UniProt P35346). The experiment in a line: Inhibition of [Leu8,D-Trp22,125I-Tyr25]SRIF-28 binding to human somatostatin receptor type 5.

Among the data in ChEMBL document CHEMBL1145176, “Somatostatin receptor 1 selective analogues: 2. N(alpha)-Methylated scan” (J Med Chem, 2005) are IC50 values, retold here.

Positions of bridges follow the written chain, without caps; N, C: chain ends. Non-standard residues stand in square brackets, D forms with d. Residues, ends and D or L forms follow the SMILES beside them. NMePhe(4-CH2NHiPr) = CN[C@@H](Cc1ccc(CNC(C)C)cc1)C(=O)O; Phe(4-CH2NHiPr) = CC(C)NCc1ccc(C[C@H](N)C(=O)O)cc1; d2Nal = N[C@H](Cc1ccc2ccccc2c1)C(=O)O; NMeS = CN[C@@H](CO)C(=O)O

Somatostatin receptor type 4, sequence (P31391 whole entry): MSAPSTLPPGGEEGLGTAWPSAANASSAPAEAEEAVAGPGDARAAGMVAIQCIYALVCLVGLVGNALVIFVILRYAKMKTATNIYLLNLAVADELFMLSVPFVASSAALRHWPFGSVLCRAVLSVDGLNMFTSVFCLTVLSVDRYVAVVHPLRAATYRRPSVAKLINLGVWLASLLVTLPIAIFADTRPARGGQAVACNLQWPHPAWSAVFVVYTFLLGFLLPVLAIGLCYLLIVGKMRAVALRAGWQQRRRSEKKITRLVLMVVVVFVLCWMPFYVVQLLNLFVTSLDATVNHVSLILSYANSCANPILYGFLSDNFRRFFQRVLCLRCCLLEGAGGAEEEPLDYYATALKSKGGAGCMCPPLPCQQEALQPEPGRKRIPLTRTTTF
Somatostatin receptor type 5, sequence (P35346 whole entry): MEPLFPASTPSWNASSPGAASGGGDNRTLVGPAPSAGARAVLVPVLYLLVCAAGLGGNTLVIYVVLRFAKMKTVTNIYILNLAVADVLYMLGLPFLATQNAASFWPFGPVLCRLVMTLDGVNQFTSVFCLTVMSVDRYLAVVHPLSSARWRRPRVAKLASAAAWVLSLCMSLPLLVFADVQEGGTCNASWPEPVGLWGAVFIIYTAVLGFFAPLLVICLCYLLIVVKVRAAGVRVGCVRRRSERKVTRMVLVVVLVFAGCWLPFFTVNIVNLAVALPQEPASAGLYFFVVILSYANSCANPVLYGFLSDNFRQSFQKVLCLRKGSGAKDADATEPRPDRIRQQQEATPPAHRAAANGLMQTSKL
Somatostatin receptor type 1, sequence (P30872 whole entry): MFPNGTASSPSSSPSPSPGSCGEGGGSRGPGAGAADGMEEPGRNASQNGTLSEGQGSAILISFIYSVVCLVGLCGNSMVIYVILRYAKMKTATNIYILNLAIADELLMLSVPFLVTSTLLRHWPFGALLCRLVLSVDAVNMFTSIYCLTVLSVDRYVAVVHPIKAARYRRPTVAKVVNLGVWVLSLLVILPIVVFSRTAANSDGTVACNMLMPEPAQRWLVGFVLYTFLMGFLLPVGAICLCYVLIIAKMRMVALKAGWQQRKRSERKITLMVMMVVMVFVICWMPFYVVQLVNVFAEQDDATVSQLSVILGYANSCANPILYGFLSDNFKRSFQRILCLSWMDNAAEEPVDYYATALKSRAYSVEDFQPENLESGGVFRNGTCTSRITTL
Somatostatin receptor type 2, sequence (P30874 whole entry): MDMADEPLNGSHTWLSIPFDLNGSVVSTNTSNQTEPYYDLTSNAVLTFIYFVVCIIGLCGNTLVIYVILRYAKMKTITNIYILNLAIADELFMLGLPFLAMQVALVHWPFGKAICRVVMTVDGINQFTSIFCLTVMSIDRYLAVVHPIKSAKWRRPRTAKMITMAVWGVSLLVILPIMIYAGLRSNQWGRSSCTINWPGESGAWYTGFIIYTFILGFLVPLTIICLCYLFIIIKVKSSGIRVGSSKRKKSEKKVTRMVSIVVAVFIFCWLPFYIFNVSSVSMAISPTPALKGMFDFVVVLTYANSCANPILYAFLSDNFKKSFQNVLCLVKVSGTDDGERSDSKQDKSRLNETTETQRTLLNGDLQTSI
Somatostatin receptor type 3, sequence (P32745 whole entry): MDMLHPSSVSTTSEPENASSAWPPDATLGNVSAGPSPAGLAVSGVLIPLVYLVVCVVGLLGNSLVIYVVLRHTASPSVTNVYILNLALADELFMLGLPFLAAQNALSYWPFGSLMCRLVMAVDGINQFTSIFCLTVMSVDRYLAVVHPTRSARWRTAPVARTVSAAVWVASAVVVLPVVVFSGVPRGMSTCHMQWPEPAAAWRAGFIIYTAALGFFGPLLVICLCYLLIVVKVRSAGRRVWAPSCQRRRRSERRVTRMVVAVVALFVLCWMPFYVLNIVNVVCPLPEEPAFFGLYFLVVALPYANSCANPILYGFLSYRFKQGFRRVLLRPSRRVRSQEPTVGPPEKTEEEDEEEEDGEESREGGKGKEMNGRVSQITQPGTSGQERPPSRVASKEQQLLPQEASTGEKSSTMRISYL

With `CC(C)NCc1ccc(C[C@@H]2NC(=O)[C@@H](N(C)C(=O)c3ccc4ccccc4c3)NC(=O)[C@H](Cc3ccccc3)NC(=O)[C@H](Cc3ccccc3)NC(=O)[C@H](CCCCN)NC(=O)[C@@H](N)CSSC[C@@H](C(=O)O)NC(=O)[C@H](CO)NC(=O)[C@H]([C@@H](C)O)NC(=O)[C@H](Cc3ccc(O)cc3)NC(=O)[C@H]([C@@H](C)O)NC2=O)cc1`, the IC50 is more than 1000 nM in assay [1], 900 nM in assay [2] and more than 1000 nM in assay [3].
For the compound `C[C@@H](O)[C@@H]1NC(=O)[C@H](Cc2ccc(O)cc2)NC(=O)[C@H]([C@@H](C)O)NC(=O)[C@H](CCCCN)NC(=O)[C@@H](Cc2c[nH]c3ccccc23)NC(=O)[C@H](Cc2ccccc2)NC(=O)[C@H](Cc2ccccc2)NC(=O)[C@H](CCCCN)NC(=O)[C@@H](N)CSSC[C@@H](C(=O)O)NC(=O)[C@H](CO)NC1=O`, the IC50 in assay [1] was 0.5 nM; in assay [2] it was 8 nM; in assay [3], 10 nM; in assay [4] it was 16 nM; in assay [5], 4.8 nM.
With `CC(C)NCc1ccc(C[C@@H]2NC(=O)[C@@H](Cc3ccc4ccccc4c3)NC(=O)[C@H](Cc3ccccc3)NC(=O)[C@H](Cc3ccccc3)NC(=O)[C@H](CCCCN)NC(=O)[C@@H](N)CSSC[C@@H](C(=O)N[C@@H](CCCCN)C(=O)O)N(C)C(=O)[C@H](CO)NC(=O)[C@H]([C@@H](C)O)NC(=O)[C@H](Cc3ccccc3)NC(=O)[C@H]([C@@H](C)O)NC2=O)cc1`, the IC50 in assay [1] was more than 1000 nM; in assay [2], more than 1000 nM; in assay [3] it was 255 nM; in assay [4], more than 1000 nM; in assay [5], more than 1000 nM.
For the compound `CC(C)NCc1ccc(C[C@@H]2NC(=O)[C@@H](Cc3c[nH]c4ccccc34)NC(=O)[C@H](Cc3ccccc3)NC(=O)[C@H](Cc3ccccc3)NC(=O)[C@H](CCCCN)NC(=O)[C@@H](N)CSSC[C@@H](C(=O)N[C@@H](CCCCN)C(=O)O)N(C)C(=O)[C@H](CO)NC(=O)[C@H]([C@@H](C)O)NC(=O)[C@H](Cc3ccccc3)NC(=O)[C@H]([C@@H](C)O)NC2=O)cc1`, the IC50 is more than 1000 nM in assay [1]; more than 1000 nM in assay [2]; 35 nM in assay [3]; more than 1000 nM in assay [4]; more than 1000 nM in assay [5].
Regarding `CN[C@H]1CSSC[C@@H](C(=O)O)NC(=O)[C@H](CO)NC(=O)[C@H]([C@@H](C)O)NC(=O)[C@H](Cc2ccccc2)NC(=O)[C@H]([C@@H](C)O)NC(=O)[C@H](Cc2ccc(CNC(C)C)cc2)NC(=O)[C@@H](Cc2ccc3ccccc3c2)NC(=O)[C@H](Cc2ccccc2)NC(=O)[C@H](Cc2ccccc2)NC(=O)[C@H](CCCCN)NC1=O`, the IC50 is more than 1000 nM in assay [1]; more than 1000 nM in assay [2]; 113 nM in assay [3]; more than 1000 nM in assay [4]; more than 1000 nM in assay [5].
In the case of `CC(C)NCc1ccc(C[C@@H]2NC(=O)[C@@H](Cc3c[nH]c4ccccc34)NC(=O)[C@H](Cc3ccccc3)NC(=O)[C@H](Cc3ccccc3)NC(=O)[C@H](CCCCN)NC(=O)[C@@H](N)CSSC[C@@H](C(=O)N[C@@H](CCCCN)C(=O)N[C@@H](CCCCN)C(=O)N[C@@H](CCCCN)C(=O)O)N(C)C(=O)[C@H](CO)NC(=O)[C@H]([C@@H](C)O)NC(=O)[C@H](Cc3ccccc3)NC(=O)[C@H]([C@@H](C)O)NC2=O)cc1`, the IC50 was more than 1000 nM in assay [1]; more than 1000 nM in assay [2]; 30 nM in assay [3]; more than 1000 nM in assay [4]; 803 nM in assay [5].
As for `CC(C)NCc1ccc(C[C@@H]2NC(=O)[C@@H](Cc3ccc4ccccc4c3)NC(=O)[C@H](Cc3ccccc3)NC(=O)[C@H](Cc3ccccc3)NC(=O)[C@H](CCCCN)NC(=O)[C@@H](N)CSSC[C@@H](C(=O)N[C@@H](CCCCN)C(=O)N[C@@H](CCCCN)C(=O)N[C@@H](CCCCN)C(=O)O)N(C)C(=O)[C@H](CO)NC(=O)[C@H]([C@@H](C)O)NC(=O)[C@H](Cc3ccccc3)NC(=O)[C@H]([C@@H](C)O)NC2=O)cc1`, the IC50 in assay [1] is more than 1000 nM; in assay [2], 620 nM; in assay [3], 144 nM; in assay [4], more than 1000 nM; in assay [5], more than 1000 nM.
As to `CC(C)NCc1ccc(C[C@@H]2NC(=O)[C@@H](Cc3c[nH]c4ccccc34)NC(=O)[C@H](Cc3ccccc3)NC(=O)[C@H](Cc3ccccc3)NC(=O)[C@H](CCCCN)NC(=O)[C@@H](N)CSSC[C@@H](C(=O)N[C@@H](CCCCN)C(=O)N[C@@H](CCCCN)C(=O)O)NC(=O)[C@H](CO)N(C)C(=O)[C@H]([C@@H](C)O)NC(=O)[C@H](Cc3ccccc3)NC(=O)[C@H]([C@@H](C)O)NC2=O)cc1`, the IC50 in assay [1] was more than 1000 nM; in assay [2], more than 1000 nM; in assay [3] it was 53 nM; in assay [4], more than 1000 nM; in assay [5] it was 682 nM.
`CC(C)NCc1ccc(C[C@@H]2NC(=O)[C@@H](Cc3c[nH]c4ccccc34)NC(=O)[C@H](Cc3ccccc3)NC(=O)[C@H](Cc3ccccc3)NC(=O)[C@H](CCCCN)NC(=O)[C@@H](N)CSSC[C@@H](C(=O)O)N(C)C(=O)[C@H](CO)NC(=O)[C@H]([C@@H](C)O)NC(=O)[C@H](Cc3ccccc3)NC(=O)[C@H]([C@@H](C)O)NC2=O)cc1`: the IC50 was more than 1000 nM in assay [1]; more than 1000 nM in assay [2]; 151 nM in assay [3]; more than 1000 nM in assay [4]; more than 1000 nM in assay [5].
`C[C@H](N)C(=O)NCC(=O)N[C@H]1CSSC[C@@H](C(=O)O)NC(=O)[C@H](CO)NC(=O)[C@H]([C@@H](C)O)NC(=O)[C@H](Cc2ccccc2)NC(=O)[C@H]([C@@H](C)O)NC(=O)[C@H](CCCCN)NC(=O)[C@@H](Cc2c[nH]c3ccccc23)NC(=O)[C@H](Cc2ccccc2)NC(=O)[C@H](Cc2ccccc2)NC(=O)[C@H](CCCCN)NC1=O` (H-AGCKFF[dW]KTFTSC-OH; disulfide 3-13): the IC50 in assay [3] came to 0.98 nM.
As for `CC(C)NCc1ccc(C[C@H]2C(=O)N[C@@H]([C@@H](C)O)C(=O)N[C@@H](Cc3ccccc3)C(=O)N[C@@H]([C@@H](C)O)C(=O)N[C@@H](CO)C(=O)N[C@H](C(=O)O)CSSC[C@H](N)C(=O)N[C@@H](CCCCN)C(=O)N[C@@H](Cc3ccccc3)C(=O)N[C@@H](Cc3ccccc3)C(=O)N[C@H](Cc3ccc4ccccc4c3)C(=O)N2C)cc1` (H-CKFF[d2Nal][NMePhe(4-CH2NHiPr)]TFTSC-OH; disulfide 1-11), the results for the IC50 in assay [3] and in assay [5] were 69 nM and more than 1000 nM, respectively.
Regarding `CC(C)NCc1ccc(C[C@H]2C(=O)N[C@@H]([C@@H](C)O)C(=O)N[C@@H](Cc3ccc(O)cc3)C(=O)N[C@@H]([C@@H](C)O)C(=O)N[C@@H](CO)C(=O)N[C@H](C(=O)O)CSSC[C@H](N)C(=O)N[C@@H](CCCCN)C(=O)N[C@@H](Cc3ccccc3)C(=O)N[C@@H](Cc3ccccc3)C(=O)N[C@H](Cc3ccc4ccccc4c3)C(=O)N2C)cc1` (H-CKFF[d2Nal][NMePhe(4-CH2NHiPr)]TYTSC-OH; disulfide 1-11), the figures for the half-maximal inhibitory concentration (IC50) in assay [3], in assay [4] and in assay [5] were 25 nM, more than 1000 nM and more than 1000 nM, respectively.
Take `CC(C)NCc1ccc(C[C@@H]2NC(=O)[C@@H](Cc3ccc4ccccc4c3)NC(=O)[C@H](Cc3ccccc3)NC(=O)[C@H](Cc3ccccc3)NC(=O)[C@H](CCCCN)NC(=O)[C@@H](N)CSSC[C@@H](C(=O)O)NC(=O)[C@H](CO)NC(=O)[C@H]([C@@H](C)O)NC(=O)[C@H](Cc3ccccc3)NC(=O)[C@H]([C@@H](C)O)NC2=O)cc1` (H-CKFF[d2Nal][Phe(4-CH2NHiPr)]TFTSC-OH; disulfide 1-11): the results for the IC50 in assay [3] and in assay [5] were 248 nM and more than 1000 nM, respectively.
As to `CC(C)NCc1ccc(C[C@H]2C(=O)N[C@@H]([C@@H](C)O)C(=O)N[C@@H](Cc3ccc(O)cc3)C(=O)N[C@@H]([C@@H](C)O)C(=O)N[C@@H](CO)C(=O)N[C@H](C(=O)O)CSSC[C@H](N)C(=O)N[C@@H](CCCCN)C(=O)N[C@@H](Cc3ccccc3)C(=O)N[C@@H](Cc3ccccc3)C(=O)N[C@H](Cc3c[nH]c4ccccc34)C(=O)N2C)cc1` (H-CKFF[dW][NMePhe(4-CH2NHiPr)]TYTSC-OH; disulfide 1-11), the IC50 in assay [4] and in assay [5] was more than 1000 nM throughout.
In assay [3], `CC(C)NCc1ccc(C[C@@H]2NC(=O)[C@@H](Cc3c[nH]c4ccccc34)NC(=O)[C@H](Cc3ccccc3)NC(=O)[C@H](Cc3ccccc3)NC(=O)[C@H](CCCCN)NC(=O)[C@@H](N)CSSC[C@@H](C(=O)O)NC(=O)[C@H](CO)NC(=O)[C@H]([C@@H](C)O)NC(=O)[C@H](Cc3ccccc3)NC(=O)[C@H]([C@@H](C)O)NC2=O)cc1` (H-CKFF[dW][Phe(4-CH2NHiPr)]TFTSC-OH; disulfide 1-11) yielded an IC50 of 33 nM.
Take `CC(C)NCc1ccc(C[C@@H]2NC(=O)[C@@H](Cc3c[nH]c4ccccc34)NC(=O)[C@H](Cc3ccccc3)NC(=O)[C@H](Cc3ccccc3)NC(=O)[C@H](CCCCN)NC(=O)[C@@H](N)CSSC[C@@H](C(=O)O)NC(=O)[C@H](CO)N(C)C(=O)[C@H]([C@@H](C)O)NC(=O)[C@H](Cc3ccccc3)NC(=O)[C@H]([C@@H](C)O)NC2=O)cc1` (H-CKFF[dW][Phe(4-CH2NHiPr)]TFT[NMeS]C-OH; disulfide 1-11): the half-maximal inhibitory concentration (IC50) in assay [2] is more than 1000 nM; in assay [3], 23 nM; in assay [4], more than 1000 nM.
For the compound `CC(C)NCc1ccc(C[C@H]2C(=O)N[C@@H]([C@@H](C)O)C(=O)N[C@@H](Cc3ccccc3)C(=O)N[C@@H]([C@@H](C)O)C(=O)N[C@@H](CO)C(=O)N[C@H](C(=O)O)CSSC[C@H](NC(=O)[C@@H](N)Cc3ccc(O)cc3)C(=O)N[C@@H](CCCCN)C(=O)N[C@@H](Cc3ccccc3)C(=O)N[C@@H](Cc3ccccc3)C(=O)N[C@H](Cc3c[nH]c4ccccc34)C(=O)N2C)cc1` (H-YCKFF[dW][NMePhe(4-CH2NHiPr)]TFTSC-OH; disulfide 2-12), the IC50 in assay [1] was 245 nM; in assay [3], 16 nM; in assay [4], more than 1000 nM.

One may read the IC50 as the point on the concentration scale where inhibition reaches its midpoint.
